Here are results for two molecules from article PMC5594551, “Heterogeneous drug penetrance of veliparib and carboplatin measured in triple negative breast tumors” (Breast Cancer Research : BCR, 2017).

The subject of one data set is TNBC. Details: method as in ref [4] = [4]; 4. Rugo HS, et al. Veliparib/carboplatin plus standard neoadjuvant therapy for high-risk breast cancer: first efficacy results from the I-SPY 2 TRIAL [abstract]. Cancer Res. 2013;73:Abstract nr S5_02. The following applies: veliparib 50 mg BID combined with carboplatin, neoadjuvant; ref [4]; cited from earlier work.
A further data set concerns nuclear DNA. The experiment in a line: Platinum adducts by ICP-MS in PBMCs from patients (carboplatin + talazoparib phase 1). In kind it is in vivo. The method, then:
Carboplatin and platinum adducts were determined in a limited number of blood samples from a previously presented phase 1 clinical trial (NCT02358200). […] In the case of grade 3 or grade 4 toxicity, carboplatin and/or talazoparib doses were held until below grade 1 and resumed at a lower dose level. Blood samples were obtained from a limited number of patients during cycle 1 day 1 (prior to talazoparib dosing) and cycle 2 day 1 pre-dose and up to 24 h post dose, and PBMCs were derived at day 15 post dose, DNA was extracted as described in Additional file 1d and platinum adducts were quantified by ICP-MS (Additional file 1b).
The platinum adduct formation in PBMCs in 19 patients was linked to carboplatin concentrations in plasma using the Eq 1. […] In this model, we tested the hypothesis that PARPi interact with platinum formation. […] The formation of adducts correlated with the number of lymphocytes (P < 0.0001) and the gBRCA mutation status (P < 0.0001). […]
b). Technical aspects of the ICP-MS method development.
PBMCs were extracted from whole blood using by centrifugation. Lysis of red blood cells was performed as needed, then PMBCs were washed and resuspended in A limited number of 5-15 mL heparinised or EDTA whole blood samples from the PK study talazoparib/carboplatin phase 1 study were included. Following centrifugation for 15 min at 1,000 g, plasma was extracted and the PBS was added to a total volume of 9.5 ml to the remaing fraction. PMBCS were extracted using density-gradient centrifugation with Ficoll-Paque Plus® (Pharmacia, Uppsala, Sweden) at room temperature for 20 min at 400 g. PBMCs were washed twice with ice-cold PBS and centrifuged at 800 G for 5 minustes at 4 °C. Cells were counted and ther resuspended in 1 mL buffer containing 10 mmol L−1 Tris- HCl, 2.3% (w/v) NaCl, and 2 mmol L−1 EDTA disodium salt at pH 7.3.
DNA extraction procedure:
The DNA extraction was based on previous publications. 4 In short, 44 μL 1 mol L −1 NH4HCO3, 20 μL 20% (w/v) SDS, and 6 μL 1% (w/v) proteinase K solution were added successively, and incubated for 24hours using a thermomixer. After the digestion was complete, 146 μL saturated 6 mol L−1 NaCl was added to each tube and the tubes were shaken vigorously to precipitate proteins. The tubes were centrifuged for 10min at 2000 g and the supernatant containing the DNA was transferred to another tube. Subsequently, the supernatant was shaken, centrifuged, and transferred to another tube. Following this, 1.5ml absolute ethanol was added to precipitate the DNA and centrifuged from 30 minutes at 21 Kg at 4°C. The DNA was washed twice with 75% ethanol and was subsequently dissolved in 30 μL water. DNA concentrations were analyzed by measuring the absorbance at 260 nm using Nanodrop 1000 spectophotometer (NanoDrop).
Carboplatin adduct quantification:
The quantity of the carboplatin-adducts per mg DNA was quantified (Figure S8) using a previously validated […]
Figure S8: Example graph of mass spectrum of platinum in DNA extraction by ICP-MS.
(1 picture or pasted object on this page, not shown here)
Supplementary Table 2: PK patients estimates carboplatin and platinum adducts Structural model PK Estimat RS
Inter-individual variability on Platinum adduct formation (RPT) 317% proportional residual error plasma carboplatin 28% 26 […]
proportional residual error adduct formation 110% 6%
Platinum adduct formation:
CL=clearance, V=volume of distribution, KA= rate of absorption, RPT= ratio of carboplatin adduct formation, KPT= rate of carboplatin adduct formation, gBRCA = germline BRCA carrier […]
(also on this page, place not known: ( )adductsC−×× plasmaCRPT KPT=dt dCadducts)

SMILES strings stand for the structures.

For `C[C@]1(c2nc3c(C(N)=O)cccc3[nH]2)CCCN1` [veliparib], the “TN patients without pathologic complete response (pCR)” value in the data set with TNBC is “approximately 42%”.
For the molecule `N.N.O=C([O-])C1(C(=O)[O-])CCC1.[Pt+2]` [carboplatin], in the data set on nuclear DNA (19 patients), the “RPT, ratio of adducts compared to plasma concentration” value worked out at 0.5%. For the same molecule, in the data set with nuclear DNA (PBMCs from patients, ICP-MS), the “Median conc. (RSE %), carboplatin adducts” value is given as 0.0552 (30%) μmol/g DNA. The “Ratio of adducts in PBMCs/plasma concentration” value in the data set with nuclear DNA (five gBRCA carriers) came to 0.64%. Also, the “Ratio of adducts in PBMCs/plasma concentration” value with nuclear DNA (nine non-carriers) turned out to be 0.29%. In addition, the “RPT (%) carboplatin adducts, model estimate” value in the data set on nuclear DNA (non-carriers, Supplementary Table 2) is recorded as 1.20%. Further, in the data set on nuclear DNA (patient PBMC samples), the Median platinum adducts is 55.2 nmol/g DNA and the “Time platinum adducts remain detectable post dose” value was “up to 15 days”. Also, in the data set on nuclear DNA (patient PBMC samples, per L blood), the “Median platinum adducts, equivalent per blood volume” value turned out to be 81.4 pg/L. Also, the “Inter-individual variability on platinum adduct formation (RPT)” value in the data set on nuclear DNA (patients) was 317%. Further, in the data set with nuclear DNA (patients PBMCs), the “Adduct formation, single-agent treatment at day 1 versus combination with talazoparib” value was “no statistical difference” and the “KPT, formation rate of adducts from plasma” value was 0.0156 L/h.
